Key:
[1] = target: CDK6/Cyclin D1 (Homo sapiens (Human), UniProt Q00534); test: biochemical; conditions: CDK6_Ki (nM), non-phosphorylated CDK6/Cyclin D1, 2 mM ATP, Morrison fit
[2] = target: CDK2/Cyclin E1 (Homo sapiens (Human), UniProt P24941); test: biochemical; conditions: CDK2_Ki (nM), phosphorylated CDK2/Cyclin E1, 150 μM ATP, Morrison tight-binding fit
Experimental: The assay was initiated with the addition of ATP, following a fifteen minutes pre-incubation of enzyme and inhibitor at room temperature in the reaction mixture. The reaction was stopped after 45 minutes at room temperature by the addition of 50 μL of 80 mM EDTA, pH 7.5.

Sequence of CDK6/Cyclin D1 (Q00534 whole entry): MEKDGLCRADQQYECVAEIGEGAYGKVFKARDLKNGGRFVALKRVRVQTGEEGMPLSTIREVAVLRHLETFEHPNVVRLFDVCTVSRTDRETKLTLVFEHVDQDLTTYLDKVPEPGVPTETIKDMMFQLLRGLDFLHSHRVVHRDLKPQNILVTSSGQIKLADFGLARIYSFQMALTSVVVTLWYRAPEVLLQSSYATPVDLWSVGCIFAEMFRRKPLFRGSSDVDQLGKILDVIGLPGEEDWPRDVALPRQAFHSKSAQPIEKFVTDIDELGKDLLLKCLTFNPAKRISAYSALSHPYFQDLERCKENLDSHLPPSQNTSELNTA
Sequence of CDK6/Cyclin D1 (P24385 whole entry partner): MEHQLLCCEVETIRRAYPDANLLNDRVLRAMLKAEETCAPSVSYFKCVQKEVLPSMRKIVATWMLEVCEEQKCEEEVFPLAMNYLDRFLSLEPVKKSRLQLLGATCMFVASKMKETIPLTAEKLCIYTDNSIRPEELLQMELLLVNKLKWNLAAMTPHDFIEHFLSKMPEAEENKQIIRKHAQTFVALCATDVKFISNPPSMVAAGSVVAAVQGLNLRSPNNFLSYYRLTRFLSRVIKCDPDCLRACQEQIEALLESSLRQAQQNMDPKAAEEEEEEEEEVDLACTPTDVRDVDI

SMILES: C[C@@]1(O)CCC[C@H]1n1c(=O)ccc2cnc(NC3CCN(S(=O)(=O)CC(F)(F)F)CC3)nc21 (single isomer, unassigned) [Example 86, (−)-8-[(1R*,2R*)-2-hydroxy-2-methylcyclopentyl]-2-({1-[(2,2,2-trifluoroethyl)sulfonyl]piperidin-4-yl}amino)pyrido[2,3-d]pyrimidin-7(8H)-one]
- Ki [1]: 1.6 nM
- Ki [2]: 0.45 nM

SMILES: Cc1cc2cnc(NC3CCN(S(C)(=O)=O)CC3)nc2n(C2CCCCC(O)C2)c1=O (single isomer, unassigned; isomer c) [Example 225, 8-(3-hydroxycycloheptyl)-6-methyl-2-{[1-(methylsulfonyl)piperidin-4-yl]amino}pyrido[2,3-d]pyrimidin-7(8H)-one-Isomer C]
- Ki [1]: 3.13 nM
- Ki [2]: 4.63 nM

SMILES: C[C@@]1(O)CCC[C@H]1n1c(=O)c(CC(N)=O)cc2cnc(NC3CCN(S(C)(=O)=O)CC3)nc21 (single isomer, unassigned) [Example 179, (−)-2-(8-[(1R*,2R*)-2-hydroxy-2-methylcyclopentyl]-2-{[1-(methylsulfonyl)piperidin-4-yl]amino}-7-oxo-7,8-dihydropyrido[2,3-d]pyrimidin-6-yl)acetamide]
- Ki [1]: 2.18 nM
- Ki [2]: 0.38 nM

SMILES: Cc1cc2cnc(NC3CCN(S(C)(=O)=O)CC3)nc2n(C2CCCCC(O)C2)c1=O (single isomer, unassigned; isomer b) [Example 224, 8-(3-hydroxycycloheptyl)-6-methyl-2-{[1-(methylsulfonyl)piperidin-4-yl]amino}pyrido[2,3-d]pyrimidin-7(8H)-one-Isomer B]
- Ki [1]: 12 nM
- Ki [2]: 24.9 nM

SMILES: CS(=O)(=O)N1CCC(Nc2ncc3cc(CC(N)=O)c(=O)n([C@@H]4CCC[C@@H](O)C4)c3n2)CC1 (single isomer, unassigned) [Example 213, (+)-2-(8-[(1R*,3R*)-3-hydroxycyclohexyl]-2-{[1-(methylsulfonyl)piperidin-4-yl]amino}-7-oxo-7,8-dihydropyrido[2,3-d]pyrimidin-6-yl)acetamide]
- Ki [1]: 9.15 nM
- Ki [2]: 1.73 nM

SMILES: C[C@]1(O)CCC[C@@H]1n1c(=O)c(CO)cc2cnc(NC3CCN(S(C)(=O)=O)CC3)nc21 (single isomer, unassigned) [Example 186, (+)-6-(hydroxymethyl)-8-[(1R*,2R*)-2-hydroxy-2-methylcyclopentyl]-2-{[1-(methylsulfonyl)piperidin-4-yl]amino}pyrido[2,3-d]pyrimidin-7(8H)-one]
- Ki [1]: 3.62 nM
- Ki [2]: 5.65 nM

SMILES: COCCS(=O)(=O)N1CCC(Nc2ncc3ccc(=O)n([C@H]4CCC[C@]4(C)O)c3n2)CC1 (single isomer, unassigned) [Example 73, (+)-8-[(1R*,2R*)-2-hydroxy-2-methylcyclopentyl]-2-({1-[(2-methoxyethyl)sulfonyl]piperidin-4-yl}amino)pyrido[2,3-d]pyrimidin-7(8H)-one]
- Ki [1]: 8.95 nM
- Ki [2]: 5.03 nM

SMILES: CS(=O)(=O)N1CCC(Nc2ncc3ccc(=O)n([C@H]4CC[C@H](O)C4)c3n2)CC1 (single isomer, unassigned) [Example 53, (+)-8-[(1R*,3R*)-3-hydroxycyclopentyl]-2-{[1-(methylsulfonyl)piperidin-4-yl]amino}pyrido[2,3-d]pyrimidin-7(8H)-one]
- Ki [1]: 3.79 nM
- Ki [2]: 1.09 nM

SMILES: C[C@H]1CCC[C@H]1n1c(=O)c(CCO)cc2cnc(NC3CCN(S(C)(=O)=O)CC3)nc21 [Example 40, 6-(2-hydroxyethyl)-8-[(1R,2S)-2-methylcyclopentyl]-2-{[1-(methylsulfonyl)piperidin-4-yl]amino}pyrido[2,3-d]pyrimidin-7(8H)-one]
- Ki [1]: 0.14 nM
- Ki [2]: 0.08 nM

SMILES: CCc1cc2cnc(NC3CCN(S(C)(=O)=O)CC3)nc2n(C2CCCC2)c1=O [Example 141, 8-cyclopentyl-6-ethyl-2-{[1-(methylsulfonyl)piperidin-4-yl]amino}pyrido[2,3-d]pyrimidin-7(8H)-one]
- Ki [1]: 0.37 nM
- Ki [2]: 1.25 nM

SMILES: Cc1cc2cnc(NC3CCN(S(=O)(=O)C(F)(F)F)CC3)nc2n([C@@H]2CCC[C@@]2(C)O)c1=O (single isomer, unassigned) [Example 181, (−)-8-[(1R*,2R*)-2-hydroxy-2-methylcyclopentyl]-6-methyl-2-({1-[(trifluoromethyl)sulfonyl]piperidin-4-yl}amino)pyrido[2,3-d]pyrimidin-7(8H)-one]
- Ki [1]: 0.85 nM
- Ki [2]: 1.32 nM

SMILES: Cn1cc(S(=O)(=O)N2CCC(Nc3ncc4ccc(=O)n([C@H]5CCC[C@]5(C)O)c4n3)CC2)cn1 (single isomer, unassigned) [Example 83, (+)-8-[(1R*,2R*)-2-hydroxy-2-methylcyclopentyl]-2-({1-[(1-methyl-1H-pyrazol-4-yl)sulfonyl]piperidin-4-yl}amino)pyrido[2,3-d]pyrimidin-7(8H)-one]
- Ki [1]: 9.77 nM
- Ki [2]: 1.98 nM

SMILES: COCc1cc2cnc(NC3CCN(S(C)(=O)=O)CC3)nc2n([C@@H]2CCC[C@@H]2C)c1=O [Example 48, 6-(methoxymethyl)-8-[(1R,2S)-2-methylcyclopentyl]-2-{[1-(methylsulfonyl)piperidin-4-yl]amino}pyrido[2,3-d]pyrimidin-7(8H)-one]
- Ki [1]: 0.54 nM
- Ki [2]: 1.39 nM

SMILES: CS(=O)(=O)N1CC[C@H](Nc2ncc3cc(N)c(=O)n(C4CCCC4)c3n2)[C@H](F)C1 (single isomer, unassigned; isomer b) [Example 150, 6-amino-8-cyclopentyl-2-{[(3R*,4S*)-3-fluoro-1-(methylsulfonyl)piperidin-4-yl]amino}pyrido[2,3-d]pyrimidin-7(8H)-one-Isomer B]
- Ki [1]: 1.32 nM
- Ki [2]: 2.63 nM

SMILES: C[C@@]1(O)CCC[C@H]1n1c(=O)c(Cl)cc2cnc(N[C@H]3CCN(S(C)(=O)=O)C[C@H]3F)nc21 (single isomer, unassigned) [Example 191, (−)-6-chloro-2-{[(3R*,4S*)-3-fluoro-1-(methylsulfonyl)piperidin-4-yl]amino}-8-[(1R,2R)-2-hydroxy-2-methylcyclopentyl]pyrido[2,3-d]pyrimidin-7(8H)-one]
- Ki [1]: 0.58 nM
- Ki [2]: 0.4 nM

SMILES: CS(=O)(=O)N1CCC(Nc2ncc3ccc(=O)n([C@H]4CC[C@@H](O)CC4)c3n2)CC1 [Example 215, 8-(cis-4-hydroxycyclohexyl)-2-{[1-(methylsulfonyl)piperidin-4-yl]amino}pyrido[2,3-d]pyrimidin-7(8H)-one]
- Ki [1]: 2.84 nM
- Ki [2]: 1.57 nM

SMILES: Cc1cc2cnc(NC3CCN(S(=O)(=O)CC(F)(F)F)CC3)nc2n([C@@H]2CCC[C@@]2(C)O)c1=O (single isomer, unassigned) [Example 118, (−)-8-[(1R*,2R*)-2-hydroxy-2-methylcyclopentyl]-6-methyl-2-({1-[(2,2,2-trifluoroethyl)sulfonyl]piperidin-4-yl}amino)pyrido[2,3-d]pyrimidin-7(8H)-one]
- Ki [1]: 4.36 nM
- Ki [2]: 0.34 nM

SMILES: CS(=O)(=O)N1CCC(Nc2ncc3cc(Cl)c(=O)n([C@@H]4CCC[C@@H](O)C4)c3n2)CC1 (single isomer, unassigned) [Example 34, (+)-6-chloro-8-[(1R*,3R*)-3-hydroxycyclohexyl]-2-{[1-(methylsulfonyl)piperidin-4-yl]amino}pyrido[2,3-d]pyrimidin-7(8H)-one]
- Ki [1]: 0.42 nM
- Ki [2]: 1.34 nM
